From the NIST ThermoML archive (doi:10.1021/acs.jced.8b00632)
Numbers after ± are expanded uncertainties.

Tests used:
[1] = Crystal; DTA
[2] = Molar enthalpy of transition or fusion; conditions: Crystal; DSC

O=C(Nc1ccc(F)cc1F)c1cccnc1Oc1cccc(C(F)(F)F)c1
Normal melting temperature [1]: 162.37 ± 0.61 °C | Molar enthalpy of transition or fusion [2]: 9.42 ± 0.22 kcal/mol
